Source: US4665098A, “Pharmaceutical composition of N-(4-hydroxyphenyl) retinamide having increased bioavailability” (McNeilab, Inc., priority 1985, dated 1987)

Columns and labels:
[1] = cited from earlier work
[2] = Stability of 4-EPR internal standard solution stored in the refrigerator; format: physicochemical; details: six months
Protocol: Assay is by high pressure liquid chromatography using a Waters HPLC System consisting of a Model 6000A solvent delivery system with a Model 440 UV absorbance detector (365 nm filter), and either a Model U6K injector (2 ml sample loop) or a Waters Intelligent Sample Processor (WISP™). […] The column is a 10 cm×4.6 mm (i.d.) Brownlee Labs RP-18 Spheri-5 (5μ) stainless steel column equipped with a 3 cm×4.6 mm (i.d.) Brownlee Labs RP-18 (10μ) stainless steel guard column. The mobile phase is acetonitrile:water:glacial acetic acid (75:23:2, v/v/v) and is prepared in 2 liter quantities. The components of the mobile phase are mixed together, filtered through a 5 μm Millipore® filter apparatus and degassed under vacuum for one-half hour while stirring. The internal standard for the assay is N-(4-ethoxyphenyl)retinamide (4-EPR). […]
The procedure of Example 1 is followed using a 4 -EPR internal standard containing 100 μg/ml which is prepared by weighing 10.0 mg of 4-EPR into a 100 ml volumetric flask and bringing to volume with methanol. A 1/2000 dilution of this stock solution is made by transferring 0.1 ml of 100 μg/ml 4-EPR solution into a 200 ml volumetric flask and bringing to volume with methanol. The resulting solution contains 50 ng/ml of 4-EPR. […] For the assay, a 1.0 ml aliquot of plasma is transferred to a 15 ml screw-cap conical bottomed glass centrifuge tube. […]

[3] = system: rats; details: oral; cited from earlier work
[4] = system: mammary cancer; details: rats, induced with N-nitroso-N-methyl urea; cited from earlier work
[5] = one formulation of HPR, 5 mg/kg, rats, cited from earlier work
[6] = cited from earlier work; remark: listed apart in the source
[7] = Bioavailability of HPR in vivo (general statements); details: small particle size of the HPR

CC1=C(/C=C/C(C)=C/C=C/C(C)=C\C(=O)O)C(C)(C)CCC1 [isotretinoin]
Effect of food intake on bioavailability [1]: affected by food intake

CCOc1ccc(NC(=O)C=C(C)C=CC=C(C)C=CC2=C(C)CCCC2(C)C)cc1 [Formulation 4-EPR, N-(4-ethoxyphenyl)retinamide]
Stability of 4-EPR solution ([2]; 50 ng/ml in methanol): without signs of decomposition
Stability of 4-EPR solution ([2]; 500 ng/ml in acetonitrile): without signs of decomposition

CC1=C(/C=C/C(C)=C/C=C/C(C)=C/C(=O)Nc2ccc(O)cc2)C(C)(C)CCC1 [HPR, N-(4-Hydroxyphenyl)-all-trans-retinamide]
Toxicity relative to retinyl acetate and retinoic acid [3]: less toxic when given orally to rats then retinyl acetate and retinoic acid
Protection against mammary cancer [4]: protects against mammary cancer in rats
Half-life of elimination ([5]; oral): 12 h
Oral absorption ([5]; oral): incompletely absorbed after oral administration
Elimination [5]: eliminated slowly
Solubility in water [6]: virtually insoluble in water
Effect of small particle size on bioavailability [7]: tends to aid bioavailability
